From US7285564B2, “Substituted 4-amino-1-(pyridylmethyl)piperidine and related compounds” (Theravance, Inc., priority 2002, dated 2007)

Molecular target: T1, hM2 receptor (Homo sapiens, UniProt P08172)
T1 construct: expressed in transfected cells; membranes prepared
T1 sequence (P08172 1-466): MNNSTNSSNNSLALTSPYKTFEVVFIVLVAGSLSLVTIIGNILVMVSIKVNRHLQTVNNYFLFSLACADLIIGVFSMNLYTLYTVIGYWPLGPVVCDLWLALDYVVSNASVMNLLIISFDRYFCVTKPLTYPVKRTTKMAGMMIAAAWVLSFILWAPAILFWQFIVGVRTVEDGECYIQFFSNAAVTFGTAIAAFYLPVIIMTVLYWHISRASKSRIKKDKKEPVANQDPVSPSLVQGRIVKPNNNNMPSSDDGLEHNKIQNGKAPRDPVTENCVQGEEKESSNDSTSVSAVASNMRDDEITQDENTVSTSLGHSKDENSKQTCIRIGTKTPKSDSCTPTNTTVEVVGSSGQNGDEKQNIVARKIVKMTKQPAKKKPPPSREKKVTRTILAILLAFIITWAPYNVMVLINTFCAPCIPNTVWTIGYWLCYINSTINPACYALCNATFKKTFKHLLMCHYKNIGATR
Assay: Blockade of agonist-mediated GTPγ[35S] binding
Format: biochemical
Conditions: membranes of CHO-K1 cells expressing hM2; read-out: Ki for blockade of carbachol-mediated GTPγ[35S] binding
Protocol: In this assay, the functional potency of a test compound was determined by measuring the ability of the test compound to block carbachol-stimulated GTPγ[^35S] binding in CHO-K1 cells expressing the hM2 receptor.
CHO-K1 cells stably expressing the hM2 muscarinic receptor were grown in medium consisting of Hams F-12 media supplemented with 10% Fetal Bovine Serum and 500 μg/ml of Geneticin (G-418). Cells were incubated in a 5% CO2, humidified incubator at 37° C. Cells were grown to confluence and harvested with dPBS+2 mM EDTA and pelleted by centrifugation at 250×g for 10 minutes.
Cells from the centrifuged pellets were resuspended in homogenization buffer (10 mM HEPES, 10 mM EDTA, pH 7 at 4° C.). […]
To determine the ability of a test compound to inhibit carbachol-stimulated GTPγ[^35S] binding, the following was added to each well of 96 well plates: 25 μL of assay buffer with […] and GDP, 25 μL of diluted test compound (prepared as described above), and 25 μL CHO cell membranes expressing the hM2 receptor. […] After the pre-incubation period, 25 μL of carbachol at the final concentration of its EC90 value determined earlier in the day was added to each plate. […]
Test compound potency (IC50) was determined using iterative curve fitting (GraphPad Prism 3.0 software; single site competition curve). […]

For `COc1ccncc1CN1CCC(N(CCCCCCCN2CC[C@@H](C(C(N)=O)(c3ccccc3)c3ccccc3)C2)C(C)C)CC1` [Example 1], the Ki was < 1 nM.
